Data as given in EP0597004B1, “THE USE OF DIOXAPYRROLOMYCIN AS AN ANTIPARASITIC AGENT AND COMPOSITIONS USEFUL THEREFOR” (PHARMACIA & UPJOHN COMPANY, priority 1991, dated 1993).
Where “and” joins values, the source holds several entries; their conditions need not be identical. Identical values can stand only once. Counter-ions that a name gives are not always drawn. Like-named read-outs stand apart in the source and are kept apart here.

Columns and labels:
Haemonchus contortus [1] = assay: Haemonchus contortus / jird assay (clearance from experimentally infected jirds); type: in vivo; settings: necropsy day 13 PI; for Percentage Clearance Susceptible: susceptible strain; for Percentage Clearance H. contortus: purity ∼100%
Method: (§1) This in vivo assay utilizes jirds infected with two important target parasites of ruminants, H. contortus and T. colubriformis (anthelmintic-sensitive or -resistant worms can be used). Initially, activity is assessed only against H. contortus as described in G.A. Conder et. al., J. Parasitol. 76:168-170 (1990), while follow-up studies examine activity against both species of parasites using the techniques outlined in G.A. Conder et al., J. Parsitol. 77:168-170 (1991).

[2] = tested on: levamisole/benzimidazole-resistant Haemonchus contortus; assay: Jird assay with levamisole/benzimidazole-resistant strain (cross-resistance); type: in vivo; settings: jirds, necropsy day 13 PI
Description: (§2) Having shown potent activity against H. contortus in sheep, dioxapyrrolomycin was examined for cross-resistance to the three major classes of broad-spectrum anthelmintics (ivermectin, levamisole, and benzimidazoles) using jirds infected with resistant strains of H. contortus. […] In vitro, the dioxapyrrolomycin dose required to affect a closantel-resistant strain of H. contortus is approximately seventeen times that required for the susceptible strain.
as §1

Haemonchus contortus [3] = assay: Haemonchus contortus / sheep assay (clearance from monospecifically infected lambs); type: in vivo; settings: necropsy day 42 PI
Method: Purpose bred, helminth-free lambs are procured. Upon arrival, the lambs are treated with ivermectin (0.2 mg/kg, subcutaneously), vaccinated for sore mouth, and placed in a single, community pen. Three weeks later each lamb is treated with levamisole hydrochloride (8.0 mg/kg per os). Two weeks after treatment with levamisole, all lambs are inoculated per os with ∼ 7,500 infective larvae of H. contortus. Rectal fecal samples are taken from each lamb 1 to 3 days prior to infection and these are examined using the double centrifugation technique to verify that the animals are free of trichostrongyles prior to infection. […] Remaining lambs are treated per os on day 35 PI; 4-5 animals receive vehicle only. Prior to administration, test materials are prepared in a manner suitable for the substance being examined. All lambs are monitored for toxic signs following treatment. Lambs are killed 7 days after treatment (day 42 PI), and the abomasum is ligated and removed from each animal. Each abomasum is opened longitudinally and the contents rinsed into an 80 mesh sieve. Sieve contents are collected in individual containers and fixed in formol-alcohol. Later each sample is transferred to a 1,000 ml graduated cylinder and the volume brought to 400 - 1000 ml with tap water. The total number of worms in a 10% aliquot is determined. If no worms are found in the 10% aliquot, the entire sample is examined. Total worm number/lamb and percentage clearance for each treatment are calculated. Percentage clearance is determined according to the following formula: Percentage clearance = [(Mean number of worms recovered from vehicle control lambs - number of worms recovered from treated lamb)/mean number of worms recovered from vehicle control lambs] x 100.

Caenorhabditis elegans = Caenorhabditis elegans in vitro assay; settings: free-living nematode
Description: The free-living nematode C. elegans in vitro assay has been described extensively in the literature, for example, K.G. Simpkin and G.C. Coles, J. Chem. Tech. Biotechnol., 31:66-69 (1981).
Dioxapyrrolomycin is active in the C. elegans assay at 0.825 ppm.

[4] = mice, cited from earlier work
[5] = tested on: Trichostrongylus colubriformis; assay: Trichostrongylus colubriformis / jird assay (clearance from experimentally infected jirds); type: in vivo; settings: necropsy day 13 PI, purity ∼100%
Method: as §1

[6] = tested on: ivermectin-resistant Haemonchus contortus; assay: Jird assay with ivermectin-resistant strain (cross-resistance); type: in vivo; settings: jirds, necropsy day 13 PI
Description: as §2, §1

[7] = tested on: closantel-resistant strain of H. contortus; assay: In vitro cross-resistance with closantel-resistant strain; parameters: species or system Haemonchus contortus; settings: closantel-resistant vs susceptible H. contortus
Description: as §2

[8] = 0.012 mg/jird per os on day 10 PI
[9] = 0.11 mg/jird per os on day 10 PI
[10] = 0.11 mg/jird per os day 10 PI, purity 95%

## CCCSc1ccc2nc(NC(=O)OC)[nH]c2c1 [Albendazole, reference compound]
Haemonchus contortus [1]; 0.075 mg/jird per os day 10 PI
  Percentage Clearance Susceptible: ∼95.0%
[2]; 0.075 mg/jird per os day 10 PI
  Percentage Clearance Levamisole/Benzimidazole Resistant: 36.2%

## O=[N+]([O-])c1c([C@H]2OCOc3c(Cl)cc(Cl)cc32)[nH]c(Cl)c1Cl [Dioxapyrrolomycin, dioxapyrrolomycin]
Haemonchus contortus [3]; 0.78 mg/kg per os on day 35 PI
  Percentage Clearance: 44.0%
Haemonchus contortus [3]; 1.56 mg/kg per os on day 35 PI
  Percentage Clearance: 92.2%
Haemonchus contortus [3]; 3.125 mg/kg per os on day 35 PI, 3.125 mg/kg
  Percentage Clearance: 99.7% and 99.9%
Haemonchus contortus [3]; 6.25 mg/kg per os on day 35 PI
  Percentage Clearance: 99.9%
Haemonchus contortus [3]; 12.5 mg/kg per os on day 35 PI
  Percentage Clearance: 100%
Caenorhabditis elegans
  active in the C. elegans in vitro assay at: 0.825 ppm
Haemonchus contortus [1]; [8]
  Percentage Clearance H. contortus: 45.8%
Haemonchus contortus [1]; 0.037 mg/jird (= 0.925 mg/kg) per os on day 10 PI
  Percentage Clearance H. contortus: 96.4%
Haemonchus contortus [1]; [9]
  Percentage Clearance H. contortus: 100%
Haemonchus contortus [1]; [10]
  Percentage Clearance Susceptible: 95.8%
[4]; ip
  LD50: 125 to 250 mg/kg
[4]; po
  LD50: 13 mg/kg
[5]; [8]
  Percentage Clearance T. colubriformis: 48.8%
[5]; 0.037 mg/jird per os on day 10 PI
  Percentage Clearance T. colubriformis: 17.2%
[5]; [9]
  Percentage Clearance T. colubriformis: 0%
[5]; 0.33 mg/jird (= 8.25 mg/kg) per os on day 10 PI
  Percentage Clearance T. colubriformis: 41.5%
[6]; [10]
  Percentage Clearance Ivermectin Resistant: 92.7%
[7]
  dose required to affect a closantel-resistant strain relative to that required for the susceptible strain: approximately seventeen
[2]; [10]
  Percentage Clearance Levamisole/Benzimidazole Resistant: 98.6%

## c1ccc([C@H]2CN3CCSC3=N2)cc1 [Levamisole hydrochloride]
Haemonchus contortus [1]; 0.4 mg/jird per os day 10 PI
  Percentage Clearance Susceptible: ∼95.0%
[6]; 0.4 mg/jird per os day 10 PI
  Percentage Clearance Ivermectin Resistant: 96.4%
[2]; 0.4 mg/jird per os day 10 PI
  Percentage Clearance Levamisole/Benzimidazole Resistant: 51.7%

## Ivermectin
Haemonchus contortus [1]; 0.005 mg/jird per os day 10 PI
  Percentage Clearance Susceptible: ∼95.0%
[6]; 0.005 mg/jird per os day 10 PI
  Percentage Clearance Ivermectin Resistant: 18.7%
[2]; 0.005 mg/jird per os day 10 PI
  Percentage Clearance Levamisole/Benzimidazole Resistant: 98.6%
